Entries after “also recorded” stand apart in the source; their conditions may differ.
Legend:
IMR90 cells = experiment: In vitro screening of the 14 in silico-selected compounds, surviving cell count, proliferating vs senescent IMR90; format: cell-based, Homo sapiens; settings: 48 h; for effect on non-senescent IMR90 cells: PD15-PD17, 1 μM; for senolytic activity on senescent IMR90 cells: PD19-PD21, 1 μM
Excerpt: IMR90 and WI38 lung fibroblasts were purchased from ECACC‐Merck. Human bone marrow (BM)‐derived mesenchymal stromal cells (MSCs) were purchased from Lonza. Human umbilical vein endothelial cells (HUVECs) are primary cells obtained from a pool of donors purchased from Clonetics (Lonza). Murine ear fibroblasts (MearFs) were obtained from C57BL/6J mice maintained in the INRCA “Specific Pathogen Free” (SPF) animal facility. MCF7 breast cancer cells were purchased from ATCC. For dose–response curves, IMR90 and WI38 were induced to senescence through replicative passages; MSCs, HUVECs, and MearFs senescence was induced with Doxorubicin; MCF7 senescence was induced with 4‐Hydroxytamoxifen (Lee et al. [2014]). The EC50 was calculated using GraphPad Prism 10 software. All treatment specifications are reported in the extended section.
Cell culture and treatment. IMR90 cells (Homo sapiens, fetal lung, fibroblast) and WI38 cells (Homo sapiens, fetal lung, fibroblast) were purchased from ECACC-Merck (Merck, Darmstadt, Germany) and cultured in MEM medium (Euroclone, Milano, Italy) supplemented with 1% L-Glutamine (Euroclone, Milano, Italy), 1% Penicillin-Streptomycin (Euroclone, Milano, Italy), and 10% Fetal Bovine Serum (FBS, Euroclone, Milano, Italy), at 37°C, 5% CO2. IMR90 cells with a population doubling (PD) from PD15 to PD23 were used; cells were considered incrementally senescent from passage PD19 to passage PD23. WI38 cells were used from PD26 to PD53. Cells were considered incrementally senescent from passage PD49 to passage PD53. For the compounds in vitro screening, IMR90 cells with passages from PD15 to PD23 were tested at increasing concentrations of 0.5 μM, 1 μM, 10 μM, and 25 μM over 24 and 48 h to evaluate the compounds' efficacy and cytotoxicity compared to the Vehicle (DMSO ≤ 0.1%). Cells were counted manually, in triplicate, using Trypan blue reagent (Euroclone) and disposable Bürker chambers. […] K5 dose-response proliferation curves were performed with compound K5 (Molport, SIA, Riga, Latvia) in concentrations 0.1, 0.5, 1, 5, 10, 50, 100, and 200 μM for 48 h. Cells were counted using a Trypan blue reagent and EVAplus cell counter. The EC50s were calculated by analyzing the data using GraphPad Prism 10 software.

[1] = Bidirectional permeability in Caco-2 cells; format: in vitro ADME; settings: 5 µM, HBSS pH 7.4, 2 hours
Protocol: APHAD S.r.l (Buccinasco, MI, Italy) performed all evaluations. Detailed protocols are reported in the extended methods section.
Permeability in Caco-2 cells. To evaluate the bidirectional permeability of the 2 compounds, Caco-2 cells (ECACC, ReadyCells, Barcellona, Spain), considered a reference cellular line for in vitro preclinical evaluation of oral dosage products, were used. These cells are cultured in monolayers, which become differentiated polarized epithelial cells after 21 days, expressing tight junctions, microvilli, intracellular metabolic enzymes, and transmembrane transporters such as BCRP, MDR1, and MRP2 (an artificial model equivalent to the intestinal epithelium). […] At the end of the experiment, the integrity of the cellular junction was measured by incubating the Lucifer yellow (LY) at the apical side (at the concentration of 0.02 mg/mL in MEM medium) and with MEM medium in the basolateral compartment for 1 hour at 37°C. At the end of incubation, fluorescence was read on a fluorimeter at λ 430-538nm. Samples were analyzed on a UPLC Acquity (Waters) coupled with an API 3200 Triple Quadrupole AB Sciex. […] The apparent permeability (Papp), the efflux ratio (ER), and the Recovery (R) were calculated to allow for estimation of metabolism and non-specific binding. […] Data are expressed as mean of n=2 (± SD).

GRP94 = GRP94 (Homo sapiens, UniProt P14625); experiment: Cellular thermal shift assay (CETSA) on cellular lysates, GRP94; settings: 46°C, compound 0.5 mM
Chain of GRP94 (P14625 22-803): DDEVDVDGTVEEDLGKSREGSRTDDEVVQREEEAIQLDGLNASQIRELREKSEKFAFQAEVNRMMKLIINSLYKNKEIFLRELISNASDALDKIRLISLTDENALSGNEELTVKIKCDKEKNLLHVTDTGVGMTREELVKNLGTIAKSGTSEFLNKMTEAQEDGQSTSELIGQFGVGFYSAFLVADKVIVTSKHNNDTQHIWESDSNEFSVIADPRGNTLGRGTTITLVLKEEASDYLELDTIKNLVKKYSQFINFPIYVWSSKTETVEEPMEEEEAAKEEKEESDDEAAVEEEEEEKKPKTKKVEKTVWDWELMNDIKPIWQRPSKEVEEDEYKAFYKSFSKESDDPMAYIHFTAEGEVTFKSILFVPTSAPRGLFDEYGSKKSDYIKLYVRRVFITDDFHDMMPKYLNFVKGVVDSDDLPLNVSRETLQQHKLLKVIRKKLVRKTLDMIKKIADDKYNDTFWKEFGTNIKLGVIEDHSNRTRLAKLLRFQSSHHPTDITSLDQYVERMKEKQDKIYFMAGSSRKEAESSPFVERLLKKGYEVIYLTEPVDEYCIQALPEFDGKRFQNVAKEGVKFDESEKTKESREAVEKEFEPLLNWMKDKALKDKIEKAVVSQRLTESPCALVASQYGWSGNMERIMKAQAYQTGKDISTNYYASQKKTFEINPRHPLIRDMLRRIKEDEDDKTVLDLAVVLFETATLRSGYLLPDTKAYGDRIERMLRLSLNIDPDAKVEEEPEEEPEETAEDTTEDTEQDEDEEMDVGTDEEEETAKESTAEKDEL
Protocol: (§1) Cellular Thermal Shift Assay (CETSA). […] Briefly, the cellular extract was lysed in RIPA buffer (10 mM Tris-HCl pH 7.4, 250 mM NaCl, 1% NP40/IGEPAL, 1% DOC, 0.01% SDS, 0.01% Glycerol, supplemented with protease/phosphatase inhibitor, PI/PhI mix and 2 mM DTT) and protein concentration was determined by a BCA kit (Pierce, Life Technologies, TFS, Waltham, MA, USA). Samples were homogenized by 3 cycles of freeze-thawing using liquid nitrogen and centrifuged at 13000 rpm at 4 °C for 30 min to separate the soluble fraction from the debris.
(§2) Following the supplier's recommendations, samples were loaded into the proper cartridge (12- 230 kDa Wes/Jess Separation Modules, ProteinSimple, Biotechne, Minneapolis, MN, USA). HSP90α (1:50, MsMAb, Abcam), HSP90β (1:50, RbMAb, Abcam), GRP94 (1:50, RbMAb, Abcam), TRAP1 (1:50, MsMAb, Abcam), α-Tubulin (1:500, MsMAb, Abcam), and β-Actin (1:500, RbMAb, Abcam) were used as primary antibodies. Secondary antibodies were Anti-Mouse Secondary HRP and Anti-Rabbit Secondary HRP (ProteinSimple, Biotechne, Minneapolis, MN, USA).

TRAP1 = target: T1, TRAP1 (Homo sapiens, UniProt Q12931); experiment: Cellular thermal shift assay (CETSA) on cellular lysates, TRAP1; settings: 46°C, compound 0.5 mM
T1 sequence (Q12931 60-704): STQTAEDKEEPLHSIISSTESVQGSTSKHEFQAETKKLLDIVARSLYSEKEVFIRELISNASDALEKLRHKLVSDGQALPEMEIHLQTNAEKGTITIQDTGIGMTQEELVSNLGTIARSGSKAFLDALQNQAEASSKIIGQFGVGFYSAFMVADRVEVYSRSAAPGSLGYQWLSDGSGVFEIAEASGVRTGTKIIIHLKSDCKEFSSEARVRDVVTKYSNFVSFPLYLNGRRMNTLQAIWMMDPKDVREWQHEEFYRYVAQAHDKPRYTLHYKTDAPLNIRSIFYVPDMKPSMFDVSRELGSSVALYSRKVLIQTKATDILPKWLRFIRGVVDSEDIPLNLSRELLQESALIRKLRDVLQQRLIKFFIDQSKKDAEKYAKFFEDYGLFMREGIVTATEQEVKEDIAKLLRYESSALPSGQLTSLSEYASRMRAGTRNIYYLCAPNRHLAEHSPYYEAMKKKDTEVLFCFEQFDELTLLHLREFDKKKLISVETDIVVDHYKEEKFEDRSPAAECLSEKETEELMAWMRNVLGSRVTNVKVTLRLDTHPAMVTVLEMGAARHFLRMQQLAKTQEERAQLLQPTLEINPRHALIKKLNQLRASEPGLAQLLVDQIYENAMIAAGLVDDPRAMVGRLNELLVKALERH
Protocol: as §1, §2

HSP90α = HSP90α (Homo sapiens, UniProt P07900); experiment: Cellular thermal shift assay (CETSA) on cellular lysates, HSP90α; settings: 46°C, compound 0.5 mM
Protocol: as §1, §2

HSP90β = HSP90β (Homo sapiens, UniProt P08238); experiment: Cellular thermal shift assay (CETSA) on cellular lysates, HSP90β; settings: 46°C, compound 0.5 mM
Chain of HSP90β (P08238 whole entry): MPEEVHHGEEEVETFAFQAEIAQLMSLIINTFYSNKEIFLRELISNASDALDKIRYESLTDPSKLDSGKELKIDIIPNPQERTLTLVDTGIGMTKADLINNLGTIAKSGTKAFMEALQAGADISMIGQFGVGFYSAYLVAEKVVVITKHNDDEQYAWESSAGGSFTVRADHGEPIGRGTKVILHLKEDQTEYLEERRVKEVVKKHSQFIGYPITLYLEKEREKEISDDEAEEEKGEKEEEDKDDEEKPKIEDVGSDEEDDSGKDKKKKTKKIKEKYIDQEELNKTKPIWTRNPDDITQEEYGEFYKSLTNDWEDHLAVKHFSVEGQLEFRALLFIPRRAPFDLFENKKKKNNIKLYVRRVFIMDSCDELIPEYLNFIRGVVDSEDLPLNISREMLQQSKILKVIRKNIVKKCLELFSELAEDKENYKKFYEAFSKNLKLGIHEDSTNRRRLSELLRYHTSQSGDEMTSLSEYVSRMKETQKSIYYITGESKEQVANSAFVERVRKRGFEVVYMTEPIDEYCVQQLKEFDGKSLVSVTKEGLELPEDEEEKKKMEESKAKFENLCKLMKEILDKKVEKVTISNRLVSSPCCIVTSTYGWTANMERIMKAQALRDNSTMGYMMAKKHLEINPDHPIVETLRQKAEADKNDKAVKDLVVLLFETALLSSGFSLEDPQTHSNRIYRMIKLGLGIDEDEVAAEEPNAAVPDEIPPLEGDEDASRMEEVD
Protocol: as §1, §2

Compound	effect on non-senescent IMR90 cells (IMR90 cells)	senolytic activity on senescent IMR90 cells (IMR90 cells)	Caco-2 bidirectional permeability [1]	stabilization of GRP94 in CETSA (GRP94)	stabilization of TRAP1 in CETSA (TRAP1)	interaction / stabilization of HSP90α in CETSA (HSP90α)	stabilization of HSP90β in CETSA (HSP90β)
Cc1ccccc1-n1c(=O)n(Cc2ccccc2)c(=O)c2[nH]cnc21 [Compound K5, 1-benzyl-3-(2-methylphenyl)-7H-purine-2,6-dione]	robust level of safety	evident senolytic activity; also recorded: highest senolytic activity	excellent permeability in both directions	did not observe a stabilization	did not observe a stabilization	potent and selective interaction	did not observe a stabilization
CC(C)(C)S(=O)(=O)C/C(N)=N/OS(=O)(=O)c1ccc(F)cc1F [Compound K4, (Z)-N'-[(2,4-difluorobenzenesulfonyl)oxy]-2-(2-methylpropane-2-sulfonyl)ethanimidamide]	robust level of safety	evident senolytic activity; also recorded: highest senolytic activity	no K4 signal was detected	did not observe a stabilization	did not observe a stabilization	potent and selective interaction	did not observe a stabilization

From publication PMC12266748, “A Xanthine Derivative With Novel Heat Shock Protein 90‐Alpha Inhibitory and Senolytic Properties” (Aging Cell, 2025)
